{"source": "ChEMBL document CHEMBL1201862", "about": "“PubChem BioAssay data set” (2004)", "key": {"[1]": {"target": "Voltage-gated inwardly rectifying potassium channel KCNH2 (Homo sapiens, UniProt Q12809)", "sequence (Q12809 whole entry)": "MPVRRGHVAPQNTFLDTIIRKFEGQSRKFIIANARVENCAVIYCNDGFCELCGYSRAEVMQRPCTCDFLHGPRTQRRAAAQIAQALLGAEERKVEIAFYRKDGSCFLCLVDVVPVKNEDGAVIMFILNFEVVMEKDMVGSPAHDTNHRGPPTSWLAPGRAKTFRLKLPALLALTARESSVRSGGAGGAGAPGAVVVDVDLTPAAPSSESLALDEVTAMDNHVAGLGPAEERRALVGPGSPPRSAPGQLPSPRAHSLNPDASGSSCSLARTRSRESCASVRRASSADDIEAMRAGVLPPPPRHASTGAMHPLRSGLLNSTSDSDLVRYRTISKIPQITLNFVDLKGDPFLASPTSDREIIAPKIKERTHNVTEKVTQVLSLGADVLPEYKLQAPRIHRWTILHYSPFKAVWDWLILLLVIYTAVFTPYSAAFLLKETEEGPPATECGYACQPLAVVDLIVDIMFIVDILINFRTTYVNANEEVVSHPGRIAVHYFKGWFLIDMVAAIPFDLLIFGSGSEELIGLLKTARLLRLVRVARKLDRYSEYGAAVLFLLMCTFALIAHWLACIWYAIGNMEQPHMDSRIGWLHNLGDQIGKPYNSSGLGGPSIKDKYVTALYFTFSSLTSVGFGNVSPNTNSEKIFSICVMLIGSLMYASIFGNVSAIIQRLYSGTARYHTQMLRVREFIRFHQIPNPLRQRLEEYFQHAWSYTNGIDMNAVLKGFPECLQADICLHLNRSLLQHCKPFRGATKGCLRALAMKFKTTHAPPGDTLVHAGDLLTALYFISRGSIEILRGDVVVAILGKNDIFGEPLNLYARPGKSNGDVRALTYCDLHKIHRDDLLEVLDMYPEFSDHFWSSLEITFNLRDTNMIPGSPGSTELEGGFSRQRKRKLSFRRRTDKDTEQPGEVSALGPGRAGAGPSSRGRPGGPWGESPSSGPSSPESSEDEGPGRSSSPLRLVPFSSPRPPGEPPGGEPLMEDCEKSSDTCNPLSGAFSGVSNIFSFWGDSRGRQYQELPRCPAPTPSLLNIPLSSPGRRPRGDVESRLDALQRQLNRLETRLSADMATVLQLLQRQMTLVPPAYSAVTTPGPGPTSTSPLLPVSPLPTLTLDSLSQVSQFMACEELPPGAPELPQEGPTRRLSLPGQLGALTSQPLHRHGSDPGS", "conditions": "Potency"}, "[2]": {"target": "Protein-tyrosine kinase 2-beta (Homo sapiens, UniProt Q14289)", "sequence (Q14289 whole entry)": "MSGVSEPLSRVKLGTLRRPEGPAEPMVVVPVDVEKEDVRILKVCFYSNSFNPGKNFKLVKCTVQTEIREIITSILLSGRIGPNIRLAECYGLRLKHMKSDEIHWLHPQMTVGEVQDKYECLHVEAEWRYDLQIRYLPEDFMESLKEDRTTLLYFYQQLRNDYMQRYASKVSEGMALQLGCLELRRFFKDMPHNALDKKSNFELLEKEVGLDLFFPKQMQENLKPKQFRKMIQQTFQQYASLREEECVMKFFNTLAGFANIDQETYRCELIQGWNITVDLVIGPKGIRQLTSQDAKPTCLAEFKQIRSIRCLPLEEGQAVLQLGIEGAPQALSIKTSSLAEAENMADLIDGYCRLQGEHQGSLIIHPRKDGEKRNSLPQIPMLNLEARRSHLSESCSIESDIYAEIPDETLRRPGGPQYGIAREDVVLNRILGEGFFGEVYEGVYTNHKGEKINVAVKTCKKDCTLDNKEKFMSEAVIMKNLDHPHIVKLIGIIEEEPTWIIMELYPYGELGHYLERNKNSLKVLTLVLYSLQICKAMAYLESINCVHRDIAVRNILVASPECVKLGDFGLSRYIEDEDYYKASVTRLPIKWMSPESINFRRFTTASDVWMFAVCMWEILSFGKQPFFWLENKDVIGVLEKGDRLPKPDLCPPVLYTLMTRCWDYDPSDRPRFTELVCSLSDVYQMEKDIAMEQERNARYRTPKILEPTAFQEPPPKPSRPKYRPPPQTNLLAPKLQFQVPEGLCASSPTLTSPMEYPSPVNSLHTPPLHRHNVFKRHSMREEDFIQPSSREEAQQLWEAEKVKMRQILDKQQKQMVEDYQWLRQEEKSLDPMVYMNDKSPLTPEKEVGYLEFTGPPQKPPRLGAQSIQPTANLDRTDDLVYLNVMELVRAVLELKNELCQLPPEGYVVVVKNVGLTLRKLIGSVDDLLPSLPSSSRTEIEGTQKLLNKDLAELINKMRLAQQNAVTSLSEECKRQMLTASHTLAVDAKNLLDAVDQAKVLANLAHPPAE"}, "Heat shock protein HSP90": {"target": "Heat shock protein HSP90 (Homo sapiens, UniProt P07900+P08238)", "assay": "tumor Hsp90 inhibitor potency, dose response (AID 712)", "assay_type": "functional"}, "[3]": {"assay": "inhibitors of Bluetongue virus cytopathic effect, confirmation, arbovirus, BSR cells (AID 1250);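 further: protection from viral cytopathic effect measured as cell viability by ATP luminescence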", "assay_type": "functional"}, "[4]": {"target": "T1, Neuropeptide Y receptor type 1 (Homo sapiens, UniProt P25929)", "T1 sequence (P25929 whole entry)": "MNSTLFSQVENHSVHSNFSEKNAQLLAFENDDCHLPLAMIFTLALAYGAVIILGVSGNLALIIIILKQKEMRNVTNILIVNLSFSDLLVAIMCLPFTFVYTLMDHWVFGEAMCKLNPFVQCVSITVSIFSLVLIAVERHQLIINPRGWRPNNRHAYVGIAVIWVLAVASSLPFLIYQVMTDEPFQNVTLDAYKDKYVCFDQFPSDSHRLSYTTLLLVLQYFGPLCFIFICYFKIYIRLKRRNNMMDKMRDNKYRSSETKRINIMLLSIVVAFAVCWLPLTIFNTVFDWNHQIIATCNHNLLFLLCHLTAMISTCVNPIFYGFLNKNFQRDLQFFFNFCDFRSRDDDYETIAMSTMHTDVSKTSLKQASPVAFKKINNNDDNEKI", "assay": "Fluorescence-based counterscreen for agonists of NPY-Y2: cell-based high-throughput dose response assay for agonists of NPY-Y1.", "assay_type": "functional"}, "[5]": {"target": "T2, Neuropeptide Y receptor type 2 (Homo sapiens, UniProt P49146)", "T2 sequence (P49146 whole entry)": "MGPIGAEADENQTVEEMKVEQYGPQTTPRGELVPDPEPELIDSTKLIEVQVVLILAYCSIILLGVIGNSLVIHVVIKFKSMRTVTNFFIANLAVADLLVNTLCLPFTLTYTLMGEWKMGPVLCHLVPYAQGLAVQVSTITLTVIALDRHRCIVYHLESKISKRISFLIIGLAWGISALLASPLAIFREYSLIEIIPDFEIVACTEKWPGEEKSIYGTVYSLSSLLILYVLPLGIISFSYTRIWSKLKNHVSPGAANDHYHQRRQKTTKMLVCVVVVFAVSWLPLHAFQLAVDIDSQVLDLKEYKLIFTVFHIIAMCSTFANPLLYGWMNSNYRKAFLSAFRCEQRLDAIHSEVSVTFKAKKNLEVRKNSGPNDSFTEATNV", "assay": "Fluorescence-based cell-based high-throughput dose response assay for agonists of NPY-Y2. [Related pubchem assays: 1703 (Screening assay (CNGC inhibitors).), 1359 (Screening assay (NPY-Y2 potentiators or agonists).), 1304 (Screening assay (NPY-Y1 potentiators or agonists).), 1710 (Screening assay (NPY-Y2 agonists).), 1791 (Summary AID.)]", "assay_type": "functional"}, "HEK293": {"tested_on": "HEK293", "assay": "Fluorescence-based counterscreen for potentiators or agonists of NPY-Y2: cell-based high-throughput dose response assay to identify inhibitors of cyclic nucleotide gated ion channel (CNGC) activity. In this assay, the parental HEK293 cell line transfected with a cyclic-nucleotide gated ion channel (CNGC)-based cAMP sensor is used to measure inhibition of isoproterenol-induced CNGC activity by test compound.", "assay_type": "functional", "conditions": "Homo sapiens"}, "[6]": {"target": "T1, Neuropeptide Y receptor type 1", "assay": "Fluorescence-based counterscreen for potentiators or agonists of NPY-Y2: cell-based high-throughput dose response assay for potentiators or agonists of NPY-Y1.", "assay_type": "functional"}, "[7]": {"target": "T2, Neuropeptide Y receptor type 2", "assay": "Fluorescence-based cell-based high-throughput dose response assay for potentiators or agonists of NPY-Y2. [Related pubchem assays: 1539 (Screening assay (NPY-Y2 potentiators or agonists).), 1703 (Screening assay (CNGC inhibitors).), 1359 (Screening assay (NPY-Y2 potentiators or agonists).), 1304 (Screening assay (NPY-Y1 potentiators or agonists).) …", "assay_type": "functional"}, "Streptococcus": {"tested_on": "Streptococcus", "assay": "Group A Streptococcus viability loss, dose response, counter-screen for streptokinase expression inhibitor project, luminescence, BacTiterGlo (AID 1915);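 further: potency for reduction of bacterial viability or growth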", "assay_type": "functional, organism-based"}, "[8]": {"tested_on": "Streptococcus sp. 'group A'", "assay": "growth inhibition of control SK(-) GAS strain, dose response, counter-screen for streptokinase expression inhibitor project, luminescence, kanamycin, BacTiterGlo, confirmation (AID 1900)", "assay_type": "functional, organism-based"}, "Ephrin type-A receptor 4": {"target": "Ephrin type-A receptor 4 (Mus musculus, UniProt Q03137)", "sequence (Q03137 whole entry)": "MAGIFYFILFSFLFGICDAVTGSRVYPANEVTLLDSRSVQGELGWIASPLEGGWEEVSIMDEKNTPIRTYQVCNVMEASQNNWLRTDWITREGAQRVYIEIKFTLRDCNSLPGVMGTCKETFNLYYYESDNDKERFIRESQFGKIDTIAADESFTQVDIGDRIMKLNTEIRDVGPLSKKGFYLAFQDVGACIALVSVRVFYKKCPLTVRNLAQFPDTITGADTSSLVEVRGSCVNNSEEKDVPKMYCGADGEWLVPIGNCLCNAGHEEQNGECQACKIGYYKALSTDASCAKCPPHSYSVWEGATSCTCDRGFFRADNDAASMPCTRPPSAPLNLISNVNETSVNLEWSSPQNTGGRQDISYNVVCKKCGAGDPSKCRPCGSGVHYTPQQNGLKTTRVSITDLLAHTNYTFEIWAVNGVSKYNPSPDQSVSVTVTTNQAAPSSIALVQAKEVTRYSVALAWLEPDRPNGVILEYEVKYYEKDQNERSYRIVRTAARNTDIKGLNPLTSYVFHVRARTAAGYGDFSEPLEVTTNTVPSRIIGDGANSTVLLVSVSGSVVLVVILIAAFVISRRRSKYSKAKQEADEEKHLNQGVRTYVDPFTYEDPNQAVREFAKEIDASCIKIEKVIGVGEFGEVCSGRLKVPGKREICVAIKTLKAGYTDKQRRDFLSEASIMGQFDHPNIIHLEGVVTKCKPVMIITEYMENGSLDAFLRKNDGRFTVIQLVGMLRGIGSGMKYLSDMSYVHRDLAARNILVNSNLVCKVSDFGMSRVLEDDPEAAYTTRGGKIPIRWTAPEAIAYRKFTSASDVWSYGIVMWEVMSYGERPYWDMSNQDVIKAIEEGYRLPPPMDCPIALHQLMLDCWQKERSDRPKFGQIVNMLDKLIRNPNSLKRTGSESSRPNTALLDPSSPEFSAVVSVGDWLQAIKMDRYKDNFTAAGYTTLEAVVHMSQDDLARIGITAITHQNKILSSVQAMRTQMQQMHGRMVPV", "assay": "inhibitors of EphA4 binding to KYL peptide, primary screen, biochemical, colorimetric, mouse EphA4 (AID 689)", "assay_type": "functional"}, "Streptokinase A": {"target": "T3, Streptokinase A (Streptococcus pyogenes serotype M1, UniProt P10520)", "T3 sequence (P10520 whole entry)": "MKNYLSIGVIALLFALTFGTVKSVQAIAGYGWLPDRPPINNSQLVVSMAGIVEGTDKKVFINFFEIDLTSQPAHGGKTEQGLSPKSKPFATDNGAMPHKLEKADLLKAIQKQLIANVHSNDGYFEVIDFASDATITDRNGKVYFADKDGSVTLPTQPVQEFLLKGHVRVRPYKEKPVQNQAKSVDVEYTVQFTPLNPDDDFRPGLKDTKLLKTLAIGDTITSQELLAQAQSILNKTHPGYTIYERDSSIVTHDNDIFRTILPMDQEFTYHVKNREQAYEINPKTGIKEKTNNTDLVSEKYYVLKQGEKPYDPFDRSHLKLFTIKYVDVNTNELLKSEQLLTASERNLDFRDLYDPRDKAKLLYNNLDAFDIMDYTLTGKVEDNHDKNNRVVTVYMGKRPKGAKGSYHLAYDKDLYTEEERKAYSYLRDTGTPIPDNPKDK", "assay": "S. pyogenes streptokinase expression inhibitors, potency, dose response, plasminogen activation absorbance, OD405 (AID 1914);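 further: secreted streptokinase activity via plasminogen activation per viability signal from cell pellet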", "assay_type": "functional, Streptococcus pyogenes M1 GAS"}, "Bcl-2-related protein A1 [9]": {"target": "T4, Bcl-2-related protein A1 (Mus musculus, UniProt Q07440)", "T4 sequence (Q07440 whole entry)": "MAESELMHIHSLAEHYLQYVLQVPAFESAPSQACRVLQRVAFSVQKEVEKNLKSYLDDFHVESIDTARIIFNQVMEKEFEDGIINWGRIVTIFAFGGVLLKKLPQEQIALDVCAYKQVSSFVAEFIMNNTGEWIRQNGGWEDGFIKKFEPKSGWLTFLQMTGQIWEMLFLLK", "assay": "Bfl-1 inhibitors blocking BH3 peptide binding, confirmation, biochemical, TR-FRET, mouse Bfl-1 (AID 621);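 further: TR-FRET binding of GST-Bfl-1 to FITC-labelled Bid peptide via terbium antibody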"}, "[10]": {"assay": "HEp-2 cell cytotoxicity, dose response, cytotoxicity control for RSV inhibitor project, HTS (AID 2410)", "assay_type": "functional", "conditions": "human respiratory syncytial virus"}, "Bcl-2-related protein A1 [11]": {"target": "T4, Bcl-2-related protein A1", "assay": "Bfl-1 binding inhibitors, SAR follow-up, biochemical, fluorescence polarization (AID 1070)"}}, "note": "Several values for one entry are separate records, joined by “and”; a condition that tells them apart may be missing. Equal values may be shown once. Activity calls are given as the source filed them.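 Wherever AC50 is given: confirmatory quantitative high-throughput screen measuring inhibition of hERG channel activity.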", "data": [{"smiles": "C[C@H]1CCCC(=O)CCC/C=C/c2cc(O)cc(O)c2C(=O)O1", "note": "[ZEARALENONE]", "values": [{"measurement": "AC50", "setting": "[1]", "value": "39.8 µM (inconclusive) and 56.2 µM (inconclusive)"}, {"measurement": "IC50", "setting": "[2]", "value": "6.92 µM (active)"}, {"measurement": "IC50", "setting": "Heat shock protein HSP90", "value": 2.402, "unit": "µM"}]}, {"smiles": "CC(=O)/C(=N/Nc1cccc(Cl)c1)Sc1nnc(C(O)c2ccccc2)n1-c1ccccc1", "note": "(stereo unspecified)", "values": [{"measurement": "IC50", "setting": "[3]", "value": "37.7 µM (active)"}]}, {"smiles": "CCN(CC)CC(O)Cn1c2ccccc2c2ccccc21", "note": "(stereo unspecified)", "values": [{"measurement": "EC50", "setting": "[4]", "value": "12.5 µM (not active)"}, {"measurement": "EC50", "setting": "[5]", "value": "29.6 µM (not active)"}, {"measurement": "EC50", "setting": "HEK293", "value": "1.49 µM (active)"}, {"measurement": "EC50", "setting": "[6]", "value": "> 35.4 µM (not active)"}, {"measurement": "EC50", "setting": "[7]", "value": "> 35.4 µM (not active)"}]}, {"smiles": "CCC(C)COC(=O)C(C#N)c1nc2ccccc2nc1N1CCCCC1", "note": "(stereo unspecified)", "values": [{"measurement": "EC50", "setting": "Streptococcus", "value": "150 µM (active)"}, {"measurement": "EC50", "setting": "[8]", "value": "41.9 µM (active)"}, {"measurement": "IC50", "setting": "Ephrin type-A receptor 4", "value": "17.5 µM (active)"}, {"measurement": "EC50", "setting": "Streptokinase A", "value": "> 150 µM (not active)"}]}, {"smiles": "COc1ccc2nc(O)c(-c3nnn(-c4ccc(Cl)c(Cl)c4)n3)cc2c1", "values": [{"measurement": "IC50", "setting": "Bcl-2-related protein A1 [9]", "value": "> 100 µM (not active)"}, {"measurement": "CC50", "setting": "[10]", "value": "> 50 µM (active)"}, {"measurement": "IC50", "setting": "Bcl-2-related protein A1 [11]", "value": "> 100 µM (not active)"}]}]}
